Assay results reported in patent US11440923B2, “Substituted macrocyclic indole derivatives” (Bayer Aktiengesellschaft, priority 2017, dated 2022).
Counter-ions that a name gives are not always drawn. Like-named read-outs stand apart in the source and are kept apart here.

Legend:
SUDHL10 cells [1] = experiment: Induction of caspase-3/7 activity in SUDHL10 cells (Assay 4); format: cell-based
Outline: (§1)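 Read-out: Caspase-Glo 3/7 luminescence (1 h, 37 °C) after cells, plated overnight, were treated with compounds for 3 h at 37 °C. Signal corrected for cell-free medium background and expressed relative to DMSO control mean.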

SUDHL5 cells [2] = experiment: Antiproliferation assay SUDHL5 (Assay 7); format: cell-based; conditions: 72 h, CellTiter-Glo, read-out: Antiproli SUDHL5 IC50 (median)
Outline: (§2)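 Cells were plated overnight at 37° C, then compound-treated for 72 h. Viability was measured by CellTiter-Glo luminescence.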

HMC-1-8 cells = experiment: Antiproliferation assay HMC-1-8 (Assay 7); format: cell-based
Outline: as §2

AMO-1 cells = experiment: Antiproliferation assay AMO-1 (Assay 7); format: cell-based
Outline: as §2

MCL-1 = MCL-1 (Homo sapiens (Human), UniProt Q07820, K194A/K197A/R201A); experiment: Protein-protein interaction assay MCL-1/Noxa BH3 peptide (MCL-1 assay, TR-FRET); format: binding
Experimental: The dose-dependent inhibition by the compounds described in this invention of the interaction between MCL-1 and the BH3 domain of Noxa (both human) was determined using a steady state binding competition assay with time-resolved fluorescence energy transfer (TR-FRET) readout. For that purpose MCL-1 (amino acids 173-321, N-terminal fused to Maltose Binding Protein (MBP) SEQ ID 1)) and a synthetic Noxa BH3-derived peptide of sequence Biotin-PEG2-PEG2-PAELEVE-Nva-[…]-amide (SEQ ID 2) served as protein receptor and tracer ligand respectively. The MBP-MCL-1 was purchased from Beryllium (Bedford, Mass., USA). The expression and purification of this protein construct has been described elsewhere (DOI:10.1371/journal.pone.0125010). The Noxa BH3-derived peptide can be obtained from e.g. Biosyntan (Berlin, Germany).
(§3) For that, 100-fold concentrated DMSO solutions were prepared by serial dilutions (1:3.4) of a 2 mM stock solution in a clear, 384-well microtiter plate (Greiner Bio-One, Frickenhausen, Germany). From there, 50 nl were transferred in a dark test plate (Greiner Bio-One, Frickenhausen, Germany). The assay was initiated by addition of 2 μL of a 2,5-fold concentrated MBP-MCL-1 solution (usually for a 1 nM end concentration in 5 μL reaction volume) in aqueous assay buffer [50 mM Tris/HCl pH 7, 100 mM sodium chloride (NaCl), 50 mM potassium fluoride (KF), 0.005% Tween-20, 2 mM DTT, 0.1% bovine gamma globulin (BGG)] to the compounds in the assay plate. This was followed by a 10-minute incubation step at 22° C. for pre-equilibration of the putative complex between MBP-MCL-1 and the compounds.
The mixture was incubated in the dark for one hour at 22° C. and then overnight at 4° C. The formation of MCL-1/Noxa complexes was determined by measuring the resonance energy transfer of the anti-MBP-Eu-cryptate antibody to the streptavidin-XL665 present in the reaction.
(§4) For that purpose, the fluorescence emission at 620 nm and 665 nm after excitation at 330-350 nm was measured in a TR-FRET measuring instrument, for instance a Rubystar or a Pherastar (both from BMG Lab Technologies, Offenburg, Germany) or a Viewlux (Perkin-Elmer). The ratio of the emission at 665 nm and at 622 nm was used as indicator of the amount of MCL-1/NOXA complexes present.
(§5) The resulting data (ratio) were normalized, taking 0% inhibition as the mean value of control measurements (usually 32 data points) where all reagents were included. In this case 50 nl DMSO were used instead of compounds. […] IC50 values were determined by regression analysis based on a 4 parameter equation (minimum, maximum, IC50, Hill; Y=Max+(Min−Max)/(1+(X/IC50)^Hill) using the Screener Software (Genedata).

SUDHL5 cells [3] = experiment: Induction of cytotoxicity in SUDHL5 cells (Assay 6); format: cell-based
Outline: (§6)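 Overnight seeding, 37 °C; 5 h compound exposure; CellTiter-Glo, 15 min RT shake; luminescence read. No-cell medium control.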

SUDHL5 cells [4] = experiment: Induction of caspase-3/7 activity in SUDHL5 cells (Assay 4); format: cell-based
Outline: as §1

SUDHL10 cells [5] = experiment: Induction of cytotoxicity in SUDHL10 cells (Assay 6); format: cell-based
Outline: as §6

BCL-XL = BCL-XL (Homo sapiens (Human), UniProt Q07817); experiment: Protein-protein interaction assay BCL-XL/Bad BH3 peptide (BCL-XL assay, TR-FRET); format: binding; conditions: read-out: BCL-XL Assay IC50 (median)
Experimental: Assay 2 Protein-Protein Interaction Assay: BCL-XL/Bad BH3 Peptide (BCL-XL Assay)
The dose-dependent inhibition by the compounds described in this invention of the interaction between BCL-XL and the BH3 domain of Bad (both human) was determined using a steady state binding competition assay with time-resolved fluorescence energy transfer (TR-FRET) readout. For that purpose BCL-XL (amino acids 1-212, C-terminal fused to a hexahistidine (6×His) tag (SEQ ID 3) and a synthetic Bad BH3-derived peptide of sequence Biotin-PEG2-PEG2-[…]-Nle-[…]-amide (SEQ ID 4) served as protein receptor and tracer ligand respectively. The recombinant BCL-XL protein (expressed in E. coli) was purchased from BPS Bioscience (San Diego, Calif., USA). The Bad BH3-derived peptide can be obtained from e.g. Biosyntan (Berlin, Germany).
as §3, with “In the assay 11 different concentrations of each compound (0.1 nM, 0.33 nM, 1.1 nM, 3.8 nM, 13 nM, 44 nM, 0.15 μM, 0.51 μM, 1.7 μM, 5.9 μM and 20 μM) were typically measured as duplicates in the same microtiter plate. For” for “For”, “His-BCL-XL” for “MBP-MCL-1”, “compounds. After that, 3 μL of a 1.67-fold concentrated solution (in assay buffer) consisting of Bad BH3-derived peptide (1 nM end concentration) and TR-FRET detection reagents [1.67 nM anti-His-Eu cryptate and 1.67 nM streptavidin-XL665 (both from Cisbio Bioassays, Codolet, France)], were added.” for “compounds.”
as §4, with “The mixture was incubated in the dark for one hour at 22° C. and then overnight at 4° C. The formation of BCL-XL/Bad complexes was determined by measuring the resonance energy transfer of the anti-His- Eu-cryptate antibody to the streptavidin-XL665 present in the reaction. For” for “For”, “BCL-XL/Bad” for “MCL-1/NOXA”
as §5

[6] = caspase-3/7 induction, 3 h; read-out: Caspase SUDHL10 EC50 (median)
[7] = caspase-3/7 induction, 3 h; read-out: Caspase SUDHL5 EC50 (median)
[8] = Homo sapiens, SU-DHL10, 3 h, caspase-3/7 induction, 3 h; read-out: Caspase SUDHL10 EC50 (median)
[9] = Homo sapiens, SU-DHL-5, 5 h, 5 h, CellTiter-Glo, read-out: Cytotox SUDHL5 IC50 (median)
[10] = Homo sapiens, SU-DHL-5, 3 h, caspase-3/7 induction, 3 h; read-out: Caspase SUDHL5 EC50 (median)
[11] = Homo sapiens, SU-DHL10, 5 h, 5 h, CellTiter-Glo, read-out: Cytotox SUDHL10 IC50 (median)
[12] = read-out: Caspase SUDHL10 EC50 (median); caspase-3/7 induction, 3 h
[13] = read-out: Antiproli HMC-1-8 IC50 median; 72 h, CellTiter-Glo
[14] = 5 h, CellTiter-Glo, read-out: Cytotox SUDHL5 IC50 (median)
[15] = read-out: Caspase SUDHL5 EC50 (median); caspase-3/7 induction, 3 h
[16] = 5 h, CellTiter-Glo, read-out: Cytotox SUDHL10 IC50 (median)

Sequence of MCL-1 (Q07820 whole entry, looked up, stated change not applied, the tested form may be a part): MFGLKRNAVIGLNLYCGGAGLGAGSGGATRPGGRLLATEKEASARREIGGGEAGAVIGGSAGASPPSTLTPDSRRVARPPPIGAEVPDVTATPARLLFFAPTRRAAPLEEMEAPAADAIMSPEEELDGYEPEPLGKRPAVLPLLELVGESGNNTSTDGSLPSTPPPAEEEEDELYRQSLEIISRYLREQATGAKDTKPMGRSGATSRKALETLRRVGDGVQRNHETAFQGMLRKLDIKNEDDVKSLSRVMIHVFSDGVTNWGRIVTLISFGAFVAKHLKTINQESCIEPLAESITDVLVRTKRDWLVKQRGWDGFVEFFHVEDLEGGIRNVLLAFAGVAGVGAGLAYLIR
Sequence of BCL-XL (Q07817 1-212): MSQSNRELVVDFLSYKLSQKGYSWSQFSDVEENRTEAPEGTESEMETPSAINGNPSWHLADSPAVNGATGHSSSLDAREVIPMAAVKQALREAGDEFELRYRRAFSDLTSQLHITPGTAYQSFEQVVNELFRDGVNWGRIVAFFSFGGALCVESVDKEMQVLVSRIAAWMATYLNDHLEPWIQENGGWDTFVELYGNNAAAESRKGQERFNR

| SMILES | EC50 (SUDHL10 cells [1]; [6]) | IC50 (SUDHL5 cells [2]) | EC50 (SUDHL5 cells [4]; [7]) | EC50 (SUDHL10 cells [1]; [8]) | IC50 (SUDHL5 cells [2]; Homo sapiens, SU-DHL-5, 72 h) | IC50 (MCL-1; MCL-1 Assay IC50 (median)) | EC50 (SUDHL5 cells [4]; [10]) | EC50 (SUDHL10 cells [1]; [12]) | IC50 (BCL-XL) | EC50 (SUDHL5 cells [4]; [15]) | IC50 (SUDHL5 cells [3]; [9]) | IC50 (SUDHL10 cells [5]; [11]) | IC50 (HMC-1-8 cells; [13]) | IC50 (SUDHL5 cells [3]; [14]) | IC50 (SUDHL10 cells [5]; [16]) | other results |
| --- | --- | --- | --- | --- | --- | --- | --- | --- | --- | --- | --- | --- | --- | --- | --- | --- |
| CCc1c2c(nn1C)C(C(F)(F)F)OCCCCn1c(C(=O)O)c(CCCOc3cccc4ccccc34)c3ccc(Cl)c-2c31 (single isomer, unassigned; enantiomer 2) [Example 34, (−)-4-chloro-3-ethyl-2-methyl-7-{3-[(naphthalen-1-yl)oxy]propyl}-15-(trifluoromethyl)-2,10,11,12,13,15-hexahydropyrazolo[4′,3′:9,10][1,6]oxazacycloundecino[8,7,6-hi]indole-8-carboxylic Acid—N-ethylethanamine Salt (Enantiomer 2)] | – | – | – | – | – | – | – | > 33 µM | > 20 µM | > 33 µM | – | – | 20.7 µM | 7.1 µM | 26 µM | IC50 (AMO-1 cells; read-out: Antiproli AMO-1 IC50 median; 72 h, CellTiter-Glo): 30.9 µM |
| Cc1c2c(nn1C)C(CCN1CCOCC1)OCCCCn1c(C(=O)O)c(CCCOc3cccc4ccccc34)c3cccc-2c31 (single isomer, unassigned; stereoisomer 1) [Example 5, 2,3-dimethyl-15-[2-(morpholin-4-yl)ethyl]-7-[3-(naphthalen-1-yloxy)propyl]-2,10,11,12,13,15-hexahydropyrazolo[4′,3′:9,10][1,6]oxazacycloundecino[8,7,6-hi]indole-8-carboxylic Acid (Stereoisomer 1)] | 0.52 µM | 0.44 µM | 0.3 µM | – | – | 0.0012 µM | – | – | – | – | – | – | – | 0.34 µM | 0.49 µM | – |
| Cc1c2c(nn1C)C(CCN1CCOCC1)OCCCCn1c(C(=O)O)c(CCCOc3cccc4ccccc34)c3cccc-2c31 (racemic) [Example 4, (rac)-2,3-dimethyl-15-[2-(morpholin-4-yl)ethyl]-7-[3-(naphthalen-1-yloxy)propyl]-2,10,11,12,13,15-hexahydropyrazolo[4′,3′:9,10][1,6]oxazacycloundecino[8,7,6-hi]indole-8-carboxylic Acid (Mixture of Stereoisomers)] | – | – | – | 0.99 µM | 0.5 µM | 0.0011 µM | 0.52 µM | – | – | – | 0.55 µM | 1.1 µM | – | – | – | – |

The next lines start with results.

| EC50 (SUDHL10 cells [1]; [6]) | IC50 (SUDHL5 cells [2]) | EC50 (SUDHL5 cells [4]; [7]) | EC50 (SUDHL10 cells [1]; [8]) | IC50 (SUDHL5 cells [2]; Homo sapiens, SU-DHL-5, 72 h) | IC50 (MCL-1; MCL-1 Assay IC50 (median)) | EC50 (SUDHL5 cells [4]; [10]) | EC50 (SUDHL10 cells [1]; [12]) | IC50 (BCL-XL) | EC50 (SUDHL5 cells [4]; [15]) | SMILES | IC50 (SUDHL5 cells [3]; [9]) | IC50 (SUDHL10 cells [5]; [11]) | IC50 (HMC-1-8 cells; [13]) | IC50 (SUDHL5 cells [3]; [14]) | IC50 (SUDHL10 cells [5]; [16]) | other results |
| --- | --- | --- | --- | --- | --- | --- | --- | --- | --- | --- | --- | --- | --- | --- | --- | --- |
| 0.051 µM | 0.11 µM | 0.069 µM | – | – | – | – | – | – | – | CCc1c2c(nn1C)C(CCC1CCOCC1)N(C)CCCCn1c(C(=O)O)c(CCCOc3cccc4cc(F)ccc34)c3ccc(Cl)c-2c31 (centres unmarked) [Example 101, 4-chloro-3-ethyl-7-{3-[(6-fluoro-1-naphthyl)oxy]propyl}-2,14-dimethyl-15-[2-(tetrahydro-2H-pyran-4-yl)ethyl]-10,11,12,13,14,15-hexahydro-2H-pyrazolo[3′,4′:8,9][1,6]diazacycloundecino[10,11,1-hi]indole-8-carboxylic Acid] | – | – | – | – | – | IC50 (HMC-1-8 cells; 72 h, CellTiter-Glo; read-out: Antiproli HMC-1-8 IC50 median): 1.49 µM; IC50 (AMO-1 cells; 72 h, CellTiter-Glo; read-out: Antiproli AMO-1 IC50 median): 0.0958 µM; IC50 (MCL-1; read-out: MCL-1 Assay IC50 (median)): 0.0018 µM; IC50 (SUDHL5 cells [3]): 0.14 µM; IC50 (SUDHL10 cells [5]): 0.071 µM |
| – | – | – | 0.037 µM | 0.071 µM | 0.0017 µM | 0.031 µM | – | – | – | CCc1c2c(nn1C)C(CCN1CC(F)(F)C1)OCCCCn1c(C(=O)O)c(CCCOc3cccc4cc(F)ccc34)c3ccc(Cl)c-2c31 (racemic) [Example 77, (rac)-4-chloro-(15-rac)-[2-(3,3-difluoroazetidin-1-yl)ethyl]-3-ethyl-7-{3-[(6-fluoronaphthalen-1-yl)oxy]propyl}-2-methyl-2,10,11,12,13,15-hexahydropyrazolo[4′,3′:9,10][1,6]oxazacycloundecino[8,7,6-hi]indole-8-carboxylic Acid] | 0.045 µM | 0.1 µM | – | – | – | IC50 (HMC-1-8 cells; 72 h, CellTiter-Glo, read-out: Antiproli HMC-1-8 IC50 median): 0.52 µM; IC50 (AMO-1 cells; Homo sapiens, AMO1, 72 h, 72 h, CellTiter-Glo; read-out: Antiproli AMO-1 IC50 median): 0.0315 µM |
| – | – | – | – | – | – | – | 25 µM | > 20 µM | > 33 µM | CCc1c2c(nn1C)C(C1CC1)OCCCCn1c(C(=O)O)c(CCCOc3cccc4cc(F)ccc34)c3ccc(Cl)c-2c31 (single isomer, unassigned; enantiomer 2) [Example 40, (−)-4-chloro-15-cyclopropyl-3-ethyl-7-{3-[(6-fluoronaphthalen-1-yl)oxy]propyl}-2-methyl-2,10,11,12,13,15-hexahydropyrazolo[4′,3′:9,10][1,6]oxazacycloundecino[8,7,6-hi]indole-8-carboxylic Acid—N-ethylethanamine Salt (Enantiomer 2)] | – | – | 23.2 µM | 20 µM | 29 µM | – |
